Structures are written as SMILES.

One experiment has as its target ALK (Homo sapiens, UniProt Q9UM73). In words: ALK enzyme assay (HTRF). In kind it is biochemical. The following applies: 0.25 nM ALK, 15.0 μM ATP, values given as pIC50 category. The essentials: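 Isolated ALK phosphorylates a biotinylated tyrosine peptide, 120 min at 20° C; anti-phosphotyrosine Eu-cryptate/streptavidin-XL665 HTRF read after 60 min with EDTA-containing detection mix.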
For orientation: In TR-FRET formats the signal depends on donor and acceptor labels being close together.

In another experiment the test system is Colo205. In words: Inhibition of cell proliferation (CellTiter-Glo or InCell analyzer), Colo205. In kind it is cell-based. The following applies: Homo sapiens, COLO 205, 72 h / 3 days, values given as IC50 category. The essentials: In one
For experiment [1], the target named is T1, NIH-3T3 cells overexpressing human IR (Homo sapiens, UniProt P06213).
T1 construct: expressed in transfected cells; host or cells: NIH-3T3 (mouse fibroblasts)
T1 sequence (P06213 28-1382): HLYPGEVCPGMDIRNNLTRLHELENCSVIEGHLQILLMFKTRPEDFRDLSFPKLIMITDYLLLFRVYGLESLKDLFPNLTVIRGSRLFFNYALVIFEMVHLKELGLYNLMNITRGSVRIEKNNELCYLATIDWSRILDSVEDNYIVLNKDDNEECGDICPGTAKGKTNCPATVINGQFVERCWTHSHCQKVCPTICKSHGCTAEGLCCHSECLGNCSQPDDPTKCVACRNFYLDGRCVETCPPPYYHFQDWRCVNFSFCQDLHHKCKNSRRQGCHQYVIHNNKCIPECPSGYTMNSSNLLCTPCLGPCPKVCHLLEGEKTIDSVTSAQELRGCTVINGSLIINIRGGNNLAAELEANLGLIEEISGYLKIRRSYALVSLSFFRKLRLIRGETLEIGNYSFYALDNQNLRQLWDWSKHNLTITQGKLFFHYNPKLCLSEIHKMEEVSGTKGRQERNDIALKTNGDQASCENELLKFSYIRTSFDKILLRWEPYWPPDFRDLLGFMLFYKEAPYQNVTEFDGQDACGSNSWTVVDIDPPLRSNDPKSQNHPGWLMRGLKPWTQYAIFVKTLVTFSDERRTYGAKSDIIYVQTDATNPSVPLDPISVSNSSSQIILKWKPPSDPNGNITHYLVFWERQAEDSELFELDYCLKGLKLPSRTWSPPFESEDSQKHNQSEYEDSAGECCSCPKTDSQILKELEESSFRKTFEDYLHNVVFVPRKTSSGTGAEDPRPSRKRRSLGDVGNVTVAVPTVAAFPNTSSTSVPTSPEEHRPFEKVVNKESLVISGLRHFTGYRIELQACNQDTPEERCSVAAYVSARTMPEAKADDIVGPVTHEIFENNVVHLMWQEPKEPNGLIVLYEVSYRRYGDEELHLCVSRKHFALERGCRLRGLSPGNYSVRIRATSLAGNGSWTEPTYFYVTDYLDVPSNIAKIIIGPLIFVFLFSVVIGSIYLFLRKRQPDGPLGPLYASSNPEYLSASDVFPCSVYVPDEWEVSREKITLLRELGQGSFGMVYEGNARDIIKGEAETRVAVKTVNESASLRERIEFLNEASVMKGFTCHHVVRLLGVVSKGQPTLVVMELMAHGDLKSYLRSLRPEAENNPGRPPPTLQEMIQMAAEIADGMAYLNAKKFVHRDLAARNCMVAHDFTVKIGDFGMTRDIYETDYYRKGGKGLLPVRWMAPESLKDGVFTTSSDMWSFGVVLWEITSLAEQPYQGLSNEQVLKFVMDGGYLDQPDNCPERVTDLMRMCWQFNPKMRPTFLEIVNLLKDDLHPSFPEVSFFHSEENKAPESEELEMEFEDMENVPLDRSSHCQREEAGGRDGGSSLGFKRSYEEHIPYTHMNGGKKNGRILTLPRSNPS
In words: IR cellular autophosphorylation (DELFIA). In kind it is cell-based. The conditions noted are these: 2 h compound, insulin 3 ug/ml for 15 minutes, IC50 category. In outline: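 Receptor autophosphorylation measured by DELFIA, capturing IGF-1R or IRβ and detecting with europium anti-pTyr, reported as percent of IGF-1- or insulin-stimulated signal. Compounds (30 uM to 1.5 nM) added 2 h before ligand, then 15 min stimulation (IGF-1 30 ng/ml or insulin 3 ug/ml).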

ALK, sequence (Q9UM73 19-1620): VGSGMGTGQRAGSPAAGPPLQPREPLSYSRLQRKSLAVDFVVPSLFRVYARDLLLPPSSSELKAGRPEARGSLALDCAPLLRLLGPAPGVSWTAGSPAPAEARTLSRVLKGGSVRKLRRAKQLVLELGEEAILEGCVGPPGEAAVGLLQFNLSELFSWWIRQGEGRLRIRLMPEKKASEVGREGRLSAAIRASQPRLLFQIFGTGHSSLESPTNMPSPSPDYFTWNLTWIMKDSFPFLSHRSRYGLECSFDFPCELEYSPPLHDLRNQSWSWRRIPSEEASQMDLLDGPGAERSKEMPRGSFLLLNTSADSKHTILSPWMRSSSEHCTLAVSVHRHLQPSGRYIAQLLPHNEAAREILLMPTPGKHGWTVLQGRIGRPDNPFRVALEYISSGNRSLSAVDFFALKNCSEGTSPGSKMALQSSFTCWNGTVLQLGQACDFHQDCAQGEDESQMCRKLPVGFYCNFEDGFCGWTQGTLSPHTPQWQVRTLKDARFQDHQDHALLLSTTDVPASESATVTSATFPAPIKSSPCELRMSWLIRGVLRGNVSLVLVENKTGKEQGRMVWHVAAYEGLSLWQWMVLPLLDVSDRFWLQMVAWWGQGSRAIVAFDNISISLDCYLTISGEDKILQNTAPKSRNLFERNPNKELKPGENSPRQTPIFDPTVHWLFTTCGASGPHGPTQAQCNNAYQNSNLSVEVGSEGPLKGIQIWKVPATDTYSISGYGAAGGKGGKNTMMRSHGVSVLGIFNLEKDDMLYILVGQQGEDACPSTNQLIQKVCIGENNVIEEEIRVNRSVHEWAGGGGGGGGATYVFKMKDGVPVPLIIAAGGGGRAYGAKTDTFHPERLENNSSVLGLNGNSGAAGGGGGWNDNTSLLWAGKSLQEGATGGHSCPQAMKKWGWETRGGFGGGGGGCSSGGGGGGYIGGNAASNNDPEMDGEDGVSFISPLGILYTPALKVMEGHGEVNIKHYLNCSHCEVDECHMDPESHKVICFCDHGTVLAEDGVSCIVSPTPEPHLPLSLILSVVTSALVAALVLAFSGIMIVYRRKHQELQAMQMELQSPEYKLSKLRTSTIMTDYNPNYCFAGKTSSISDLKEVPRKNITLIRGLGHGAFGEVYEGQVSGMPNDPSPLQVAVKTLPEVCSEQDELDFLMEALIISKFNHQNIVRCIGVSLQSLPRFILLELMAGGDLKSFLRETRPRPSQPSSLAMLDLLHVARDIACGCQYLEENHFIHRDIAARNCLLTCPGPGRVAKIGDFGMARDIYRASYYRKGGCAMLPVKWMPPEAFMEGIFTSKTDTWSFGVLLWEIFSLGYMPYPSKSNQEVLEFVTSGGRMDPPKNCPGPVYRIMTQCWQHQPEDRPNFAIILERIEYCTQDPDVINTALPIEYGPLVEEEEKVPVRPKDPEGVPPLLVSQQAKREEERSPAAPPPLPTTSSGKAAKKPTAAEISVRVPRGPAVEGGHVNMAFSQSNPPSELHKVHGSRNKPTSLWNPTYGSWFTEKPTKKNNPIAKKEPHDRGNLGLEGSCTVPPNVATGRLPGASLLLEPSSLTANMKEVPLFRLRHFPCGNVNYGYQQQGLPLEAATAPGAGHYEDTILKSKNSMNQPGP

As for `COc1cc2c(cc1Nc1nc(Nc3cccc(F)c3C(N)=O)c3cc[nH]c3n1)N(C(C)=O)CC2` [Example 134, 2-[(2-{[1-acetyl-5-(methyloxy)-2,3-dihydro-1H-indol-6-yl]amino}-1H-pyrrolo[2,3-d]pyrimidin-4-yl)amino]-6-fluorobenzamide], the IC50 was 0.00126 to 0.00398 µM on ALK, 0.25 to 1 µM in the experiment with Colo205 and under 0.1 µM in experiment [1].
With `CCCNC(=O)c1c(F)cc(F)cc1Nc1nc(Nc2cc3c(cc2OC)CCN3C(=O)CN(C)C)nc2[nH]ccc12` [Example 152, 2-[(2-{[1-(N,N-dimethylglycyl)-5-(methyloxy)-2,3-dihydro-1H-indol-6-yl]amino}-1H-pyrrolo[2,3-d]pyrimidin-4-yl)amino]-4,6-difluoro-N-propylbenzamide], the IC50 is 0.000251 to 0.001 µM on ALK, 0.25 to 1 µM in the experiment on Colo205 and 0.1 to 0.5 µM in experiment [1].
Consider `COc1ccc(C(N)=O)c(Nc2nc(Nc3ccc(N4CCOC[C@@H]4C)cc3OC)nc3[nH]ccc23)c1` [Example 39, 2-[(2-{[4-[(3S)-3-methyl-4-morpholinyl]-2-(methyloxy)phenyl]amino}-1H-pyrrolo[2,3-d]pyrimidin-4-yl)amino]-4-(methyloxy)benzamide], for which the 50% inhibitory concentration (IC50) against ALK is 0.00126 to 0.00398 µM; in the experiment on Colo205, 0.25 to 1 µM.
As to `COc1cc2c(cc1Nc1nc(Nc3cccc(F)c3C(N)=O)c3cc[nH]c3n1)N(C(=O)CN1CCN(C(C)C)CC1)CC2` [Example 186, 2-fluoro-6-[(2-{[1-{[4-(1-methylethyl)-1-piperazinyl]acetyl}-5-(methyloxy)-2,3-dihydro-1H-indol-6-yl]amino}-1H-pyrrolo[2,3-d]pyrimidin-4-yl)amino]benzamide], the half-maximal inhibitory concentration (IC50) against ALK is 0.00501 to 0.2 µM; with Colo205 it was over 1 µM; in experiment [1] it was over 0.5 µM.
For `CCCN1CCC=C(c2ccc(Nc3nc(Nc4ccc(F)cc4C(N)=O)c4cc[nH]c4n3)c(OC)c2)C1` [Example 54, 5-fluoro-2-[(2-{[2-(methyloxy)-4-(1-propyl-1,2,5,6-tetrahydro-3-pyridinyl)phenyl]amino}-1H-pyrrolo[2,3-d]pyrimidin-4-yl)amino]benzamide], the values for the half-maximal inhibitory concentration (IC50) (against ALK; in the experiment with Colo205; in experiment [1]) were 0.000251 to 0.001 µM, under 0.25 µM and 0.1 to 0.5 µM, respectively.
In the case of `COc1cc2c(cc1Nc1nc(Nc3cccc(F)c3C(N)=O)c3cc[nH]c3n1)N(C(=O)CN1CCC1)CC2` [Example 143, 2-[(2-{[1-(1-azetidinylacetyl)-5-(methyloxy)-2,3-dihydro-1H-indol-6-yl]amino}-1H-pyrrolo[2,3-d]pyrimidin-4-yl)amino]-6-fluorobenzamide], the 50% inhibitory concentration (IC50) at ALK was 0.00126 to 0.00398 µM; in the experiment with Colo205 it was 0.25 to 1 µM; in experiment [1], 0.1 to 0.5 µM.
Turning to `COc1cc2c(cc1Nc1nc(Nc3cccc(F)c3C(N)=O)c3cc[nH]c3n1)N(CCN(C)C)CC2` [Example 117, 2-[(2-{[1-[2-(dimethylamino)ethyl]-5-(methyloxy)-2,3-dihydro-1H-indol-6-yl]amino}-1H-pyrrolo[2,3-d]pyrimidin-4-yl)amino]-6-fluorobenzamide], the results for the IC50 (at ALK; in the experiment on Colo205; in experiment [1]) were 0.00501 to 0.2 µM, over 1 µM and over 0.5 µM, respectively.
The corresponding values for `COc1cc2c(cc1Nc1nc(Nc3cccc4c3C(=O)NC4)c3cc[nH]c3n1)N(C(=O)CN(C)C)CC2` [Example 200, 7-[(2-{[1-(N,N-dimethylglycyl)-5-(methyloxy)-2,3-dihydro-1H-indol-6-yl]amino}-1H-pyrrolo[2,3-d]pyrimidin-4-yl)amino]-2,3-dihydro-1H-isoindol-1-one] are 0.00126 to 0.00398 µM, under 0.25 µM and under 0.1 µM.
The corresponding values for `COc1cc2c(cc1Nc1nc(Nc3cccc(F)c3C(N)=O)c3cc[nH]c3n1)N(C(=O)Cn1ccnc1)CC2` [Example 145, 2-fluoro-6-[(2-{[1-(1H-imidazol-1-ylacetyl)-5-(methyloxy)-2,3-dihydro-1H-indol-6-yl]amino}-1H-pyrrolo[2,3-d]pyrimidin-4-yl)amino]benzamide] are 0.00501 to 0.2 µM, over 1 µM and over 0.5 µM.
In the case of `COc1cc2c(cc1Nc1nc(Nc3cccc(F)c3C(N)=O)c3cc[nH]c3n1)N(C(=O)CN(C)OC)CC2` [Example 144, 2-fluoro-6-[(2-{[1-[N-methyl-N-(methyloxy)glycyl]-5-(methyloxy)-2,3-dihydro-1H-indol-6-yl]amino}-1H-pyrrolo[2,3-d]pyrimidin-4-yl)amino]benzamide], the half-maximal inhibitory concentration (IC50) against ALK is 0.00501 to 0.2 µM; in the experiment with Colo205, over 1 µM; in experiment [1], over 0.5 µM.
For `CNC(=O)c1c(F)cccc1Nc1nc(Nc2cc(N(C)C(=O)CN(C)C)ccc2OC)nc2[nH]ccc12` [Example 242, 2-[(2-{[5-[(N,N-dimethylglycyl)(methyl)amino]-2-(methyloxy)phenyl]amino}-1H-pyrrolo[2,3-d]pyrimidin-4-yl)amino]-6-fluoro-N-methylbenzamide], the half-inhibitory concentration (IC50) against ALK is 0.00501 to 0.2 µM; in the experiment with Colo205, over 1 µM; in experiment [1], under 0.1 µM.
Regarding `CNC(=O)c1cc2ccccc2cc1Nc1nc(Nc2cc3c(cc2OC)CCN3C(=O)CN(C)C)nc2[nH]ccc12` [Example 125, 3-[(2-{[1-(N,N-dimethylglycyl)-5-(methyloxy)-2,3-dihydro-1H-indol-6-yl]amino}-1H-pyrrolo[2,3-d]pyrimidin-4-yl)amino]-N-methyl-2-naphthalenecarboxamide], the IC50 on ALK was 0.00501 to 0.2 µM; in the experiment on Colo205, 0.25 to 1 µM; in experiment [1] it was 0.1 to 0.5 µM.
Consider `COc1cc2c(cc1Nc1nc(Nc3cccc(F)c3C(N)=O)c3cc[nH]c3n1)N(C(=O)CN1CCOCC1)CC2` [Example 185, 2-fluoro-6-[(2-{[5-(methyloxy)-1-(4-morpholinylacetyl)-2,3-dihydro-1H-indol-6-yl]amino}-1H-pyrrolo[2,3-d]pyrimidin-4-yl)amino]benzamide], for which the half-inhibitory concentration (IC50) against ALK is 0.00501 to 0.2 µM; in the experiment on Colo205, over 1 µM; in experiment [1], over 0.5 µM.
Turning to `COc1cc2c(cc1Nc1nc(Nc3cccc(F)c3C(N)=O)c3cc[nH]c3n1)N(C(=O)CCN1CCOCC1)CC2` [Example 187, 2-fluoro-6-{[2-({5-(methyloxy)-1-[3-(4-morpholinyl)propanoyl]-2,3-dihydro-1H-indol-6-yl}amino)-1H-pyrrolo[2,3-d]pyrimidin-4-yl]amino}benzamide], the IC50 on ALK was 0.00126 to 0.00398 µM; with Colo205 it was over 1 µM; in experiment [1] it was 0.1 to 0.5 µM.
The corresponding values for `COc1cc2c(cc1Nc1nc(Nc3cc4ccccc4cc3C(N)=O)c3cc[nH]c3n1)N(C(=O)CN(C)C)CC2` [Example 124, 3-[(2-{[1-(N,N-dimethylglycyl)-5-(methyloxy)-2,3-dihydro-1H-indol-6-yl]amino}-1H-pyrrolo[2,3-d]pyrimidin-4-yl)amino]-2-naphthalenecarboxamide] are 0.00126 to 0.00398 µM, under 0.25 µM and 0.1 to 0.5 µM.
As to `COc1cc(N2CCCN(S(C)(=O)=O)CC2)ccc1Nc1nc(Nc2cccc(F)c2C(N)=O)c2cc[nH]c2n1` [Example 207, 2-fluoro-6-{[2-({2-(methyloxy)-4-[4-(methylsulfonyl)hexahydro-1H-1,4-diazepin-1-yl]phenyl}amino)-1H-pyrrolo[2,3-d]pyrimidin-4-yl]amino}benzamide], the half-maximal inhibitory concentration (IC50) on ALK was 0.00126 to 0.00398 µM; in the experiment with Colo205 it was 0.25 to 1 µM; in experiment [1], over 0.5 µM.
In the case of `COc1cc(N2CCN(C(C)C)CC2)ccc1Nc1nc(Nc2ccccc2C(N)=O)c2cc[nH]c2n1` [Example 7, 2-[(2-{[4-[4-(1-methylethyl)-1-piperazinyl]-2-(methyloxy)phenyl]amino}-1H-pyrrolo[2,3-d]pyrimidin-4-yl)amino]benzamide], the concentration for half-maximal inhibition (IC50) is 0.000251 to 0.001 µM against ALK, under 0.25 µM with Colo205 and 0.1 to 0.5 µM in experiment [1].
The like results for `COc1cc2c(cc1Nc1nc(Nc3cccc(F)c3C(N)=O)c3cc[nH]c3n1)NCCC2` [Example 211, 2-fluoro-6-[(2-{[6-(methyloxy)-1,2,3,4-tetrahydro-7-quinolinyl]amino}-1H-pyrrolo[2,3-d]pyrimidin-4-yl)amino]benzamide] were, in that order, 0.00501 to 0.2 µM, over 1 µM and over 0.5 µM.
The corresponding values for `COc1cc(OCCN2CCN(C)CC2)ccc1Nc1nc(Nc2cccc(F)c2C(N)=O)c2cc[nH]c2n1` [Example 203, 2-fluoro-6-({2-[(2-(methyloxy)-4-{[2-(4-methyl-1-piperazinyl)ethyl]oxy}phenyl)amino]-1H-pyrrolo[2,3-d]pyrimidin-4-yl}amino)benzamide] are 0.000251 to 0.001 µM, 0.25 to 1 µM and under 0.1 µM.
The corresponding values for `COc1ccc(OC[C@@H](O)CN2CCCC2)cc1Nc1nc(Nc2cc(F)c(F)cc2C(N)=O)c2cc[nH]c2n1` [Example 107, 4,5-difluoro-2-[(2-{[5-{[(2S)-2-hydroxy-3-(1-pyrrolidinyl)propyl]oxy}-2-(methyloxy)phenyl]amino}-1H-pyrrolo[2,3-d]pyrimidin-4-yl)amino]benzamide] are 0.00126 to 0.00398 µM, 0.25 to 1 µM and over 0.5 µM.
With `CN(C)CC(=O)Nc1ccc(F)c(Nc2nc(Nc3ccccc3C(N)=O)c3cc[nH]c3n2)c1` [Example 17, 2-{[2-({5-[(N,N-dimethylglycyl)amino]-2-fluorophenyl}amino)-1H-pyrrolo[2,3-d]pyrimidin-4-yl]amino}benzamide], the IC50 against ALK is 0.000251 to 0.001 µM; in the experiment with Colo205, under 0.25 µM.
As to `COc1ccc(NC(=O)CN(C)C)cc1Nc1nc(Nc2ccccc2C(N)=O)c2cc[nH]c2n1` [Example 15, 2-[(2-{[5-[(N,N-dimethylglycyl)amino]-2-(methyloxy)phenyl]amino}-1H-pyrrolo[2,3-d]pyrimidin-4-yl)amino]benzamide], the figures for the IC50 on ALK and in the experiment with Colo205 were 0.000251 to 0.001 µM and under 0.25 µM, respectively.

The term IC50 denotes the concentration needed to halve the response being measured. Higher therefore signals lower potency.

The values are drawn from patent publication US7981903B2, “2-[2-{phenylamino}-1H-pyrrolo[2,3-D]pyrimidin-4-yl)amino] benzamide derivatives as IGF-1R inhibitors for the treatment of cancer” (GlaxoSmithKline LLC, priority 2007, dated 2011).
